Converted amounts (≈) assume the structure as drawn. Like-named read-outs stand apart in the source and are kept apart here.
How the values were obtained:
[1] = FRAP assay (ferric-ion reducing antioxidant power); details: mean ± SD
Protocol: To evaluate the antioxidant ability of the tested systems, antioxidant analysis was performed. Antioxidants can scavenge hydroxyl radicals in two ways: by reacting directly with hydroxyl radicals (DPPH^•, ABTS^•+) or indirectly inhibiting the formation of hydroxyl radicals by chelating metal ions involved in the production of hydroxyl radicals. The antioxidant activity of the systems studied was investigated by using DPPH^• scavenging, ABTS^•+ scavenging ability, and Fe^2+-chelating ability. In this study, the antioxidant activity of pure hesperetin and its Schiff bases (HHSB, HIN, and HTSC) and HP-β-CD complexes were compared, and the positive control was Trolox.
The antioxidant capacity determined by the FRAP assay (the ability of plasma to reduce iron) was carried out using a modification of the FRAP assay. The FRAP reagent consisted of the following solutions: 300 mM acetate, pH 3.6 glacial acetic acid buffer, 20 mM ferric chloride (FeCl3×6H2O), and 10 mM 2,4,6-tripyridyl-S-triazine (TPTZ) prepared in 40 mM HCl. The aforementioned solutions were mixed together in a ratio of 10:1:1 (v/v/v). The FRAP assay consisted of adding 15 µL of sample to 1.98 mL of reagent and incubating the mixture at 37 °C for 4 min. Absorbance measurement was recorded at 593 nm against a blank. Total antioxidant capacity was estimated relative to a standard of known FRAP concentration, ferrous sulfate.

[2] = Phase solubility studies with HP-β-CD; format: physicochemical
Protocol: The purpose of this part of the study was to determine the solubility of compounds of hesperetin and its Schiff bases (HHSB, HIN, and HTSC) in aqueous solution at different pHs and temperatures, and the effect of their inclusion in modified HP-β-CD on the aqueous solubility of these compounds at different pH values.
The effect of the presence of HP-β-CD at different temperatures (25, 37, and 60 °C) was determined by developing phase solubility diagrams.
In accordance with the methodology described in Section 3.4, excess amounts of each tested substance were added to aqueous solution with increasing concentration of HP-β-CD up to 16 mM, respectively, in 2 mL of 100 mM sodium acetate buffer (pH 3.6), 100 mM sodium phosphate buffer (pH 6.5) or 100 mM sodium borate buffer (pH 8.5).
Phase solubility studies were conducted according to [64] with some modifications. Excess amounts of each tested substance were added to aqueous solution with increasing concentration of HP-β-CD up to 16 mM, in 2 mL of 100 mM sodium acetate buffer (pH 3.6), 100 mM sodium phosphate buffer (pH 6.5), or 100 mM sodium borate buffer (pH 8.5), respectively. The samples were maintained in an ultrasonic bath at various temperatures (25, 37, and 60 °C) for 60 min to reach equilibrium. The aqueous solutions were then filtered through 0.45 µm acetate cellulose (CA) membrane filter and diluted. The tested compound concentration on each clear filtrate was spectrophotometrically determined by measuring at their wavelength maximum.
The complexation constant (Kc) between studied molecules and HP-β-CD was determined by using Equation (1):(1) Kc=slope/S0 (1−slope) where S0 means the water solubility of the studied substance, and “slope” means the slope of the phase solubility diagram.
Complexation efficiency was calculated from the slope of the phase solubility diagram using Equation (2):(2) CE=S0×Kc=slope/1−slope
The CE was also applied to evaluate the molar ratio in solution of tested systems using Equation (3):(3) Compound:HP−β−CD=1:(1+1/CE)

[3] = test system: Staphylococcus aureus ATCC 27734; assay: Antagonistic activity, diffusion-well method; format: cell-based; details: ATCC27734, compounds at 2.5 µM, wells 8 mm, 37 °C, 18 h
Protocol: The antimicrobial activity of the HESP, ligands ([…], and HTSC), and complexes with HP-β-CD were tested against Gram-positive bacteria (Listeria monocytogenes ATCC 19111, Listeria monocytogenes ATCC 19112, Listeria monocytogenes ATCC 19115, Staphylococcus aureus ATCC 29737, Staphylococcus aureus ATCC 25923, Staphylococcus aureus ATCC 27734) and Gram-negative bacteria (Escherichia coli ATCC 11303, Escherichia coli ATCC 35218, Salmonella Typhimurium, ATCC 14028, Salmonella Enteritidis ATCC 13076, Salmonella Choleraesuis ATCC 7001). The strains were activated from cryobanks by passaging them twice onto a Nutrient Broth (Merck, Darmstadt, Germany). All bacteria were grown for 24 h at 37 °C. Antagonistic activity of the following chemical compounds: […], and […] determined by the diffusion-well method. The test strains were plated on Mueller-Hinton Agar (Merck, Darmstadt, Germany) in the form of a surface layer of bacteria according to the procedures recommended by the European Committee on Antimicrobial Susceptibility Testing EUCAST [74]. The detailed methodology was described in the paper by Sykuła et al.. Bacterial inoculum was prepared from an overnight solid culture. The inoculum density was 1-2 × 10^8 CFU/mL, which corresponds to a McFarland standard of 0.5. The samples of the test compounds were dissolved in 5% (w/w) DMSO to obtain a concentration of 500 μM, and were sterilized using filtration (filter pore width 0.2 μm; (Sartorius AG, Gottingen, Germany). The bacteria inoculum test culture (0.1 mL) smear conducted was on sterile Mueller-Hinton Agar (Merck, Darmstadt, Germany) plates. […] A total of 50 μL of the prepared solutions of the tested compounds at a concentration of 500 μM were added to the wells. The plates prepared in this way were incubated at 37 °C for 18 h. After this time, zones of growth inhibition were read and the result was given in mm. The experiment was carried out in two independent repetitions. The results were expressed in average values and standard deviation. The results were analyzed using a one-way ANOVA and post-hoc Tukey's test.

[4] = aqueous buffer, thermodynamic from solid, 25 °C, pH 3.6 sodium acetate buffer, without cyclodextrin, read-out: solubility without HP-β-CD (value in brackets) (converted)
[5] = aqueous buffer, thermodynamic from solid, 25 °C, pH 6.5 sodium phosphate buffer, without cyclodextrin, read-out: solubility without HP-β-CD (value in brackets) (converted)
[6] = aqueous buffer, thermodynamic from solid, 25 °C, pH 8.5 sodium borate buffer, without cyclodextrin, read-out: solubility without HP-β-CD (value in brackets) (converted)
[7] = aqueous buffer, thermodynamic from solid, 37 °C, pH 3.6 sodium acetate buffer, without cyclodextrin, read-out: solubility without HP-β-CD (value in brackets) (converted)
[8] = aqueous buffer, thermodynamic from solid, 37 °C, pH 6.5 sodium phosphate buffer, without cyclodextrin, read-out: solubility without HP-β-CD (value in brackets) (converted)
[9] = aqueous buffer, thermodynamic from solid, 37 °C, pH 8.5 sodium borate buffer, without cyclodextrin, read-out: solubility without HP-β-CD (value in brackets) (converted)
[10] = aqueous buffer, thermodynamic from solid, 60 °C, pH 3.6 sodium acetate buffer, without cyclodextrin, read-out: solubility without HP-β-CD (value in brackets) (converted)
[11] = aqueous buffer, thermodynamic from solid, 60 °C, pH 6.5 sodium phosphate buffer, without cyclodextrin, read-out: solubility without HP-β-CD (value in brackets) (converted)
[12] = aqueous buffer, thermodynamic from solid, 60 °C, pH 8.5 sodium borate buffer, without cyclodextrin, read-out: solubility without HP-β-CD (value in brackets) (converted)
[13] = thermodynamic from solid, 25 °C, pH 3.6 sodium acetate buffer, with HP-β-CD, read-out: S0 (solubility with HP-β-CD)
[14] = thermodynamic from solid, 25 °C, pH 6.5 sodium phosphate buffer, with HP-β-CD, read-out: S0 (solubility with HP-β-CD)
[15] = thermodynamic from solid, 25 °C, pH 8.5 sodium borate buffer, with HP-β-CD, read-out: S0 (solubility with HP-β-CD)
[16] = thermodynamic from solid, 37 °C, pH 3.6 sodium acetate buffer, with HP-β-CD, read-out: S0 (solubility with HP-β-CD)
[17] = thermodynamic from solid, 37 °C, pH 6.5 sodium phosphate buffer, with HP-β-CD, read-out: S0 (solubility with HP-β-CD)
[18] = thermodynamic from solid, 37 °C, pH 8.5 sodium borate buffer, with HP-β-CD, read-out: S0 (solubility with HP-β-CD)
[19] = thermodynamic from solid, 60 °C, pH 3.6 sodium acetate buffer, with HP-β-CD, read-out: S0 (solubility with HP-β-CD)
[20] = thermodynamic from solid, 60 °C, pH 6.5 sodium phosphate buffer, with HP-β-CD, read-out: S0 (solubility with HP-β-CD)
[21] = thermodynamic from solid, 60 °C, pH 8.5 sodium borate buffer, with HP-β-CD, read-out: S0 (solubility with HP-β-CD)

CE complexation efficiency ([2]; 25 °C, pH 3.6, with HP-β-CD)	Kc complexation constant ([2]; 25 °C, pH 3.6, with HP-β-CD)	CE complexation efficiency ([2]; 25 °C, pH 6.5, with HP-β-CD)	Kc complexation constant ([2]; 25 °C, pH 6.5, with HP-β-CD)	CE complexation efficiency ([2]; 25 °C, pH 8.5, with HP-β-CD)	Kc complexation constant ([2]; 25 °C, pH 8.5, with HP-β-CD)	CE complexation efficiency ([2]; 37 °C, pH 3.6, with HP-β-CD)	Kc complexation constant ([2]; 37 °C, pH 3.6, with HP-β-CD)	CE complexation efficiency ([2]; 37 °C, pH 6.5, with HP-β-CD)	Kc complexation constant ([2]; 37 °C, pH 6.5, with HP-β-CD)	CE complexation efficiency ([2]; 37 °C, pH 8.5, with HP-β-CD)	Kc complexation constant ([2]; 37 °C, pH 8.5, with HP-β-CD)	CE complexation efficiency ([2]; 60 °C, pH 3.6, with HP-β-CD)	Kc complexation constant ([2]; 60 °C, pH 3.6, with HP-β-CD)	CE complexation efficiency ([2]; 60 °C, pH 6.5, with HP-β-CD)	Kc complexation constant ([2]; 60 °C, pH 6.5, with HP-β-CD)	CE complexation efficiency ([2]; 60 °C, pH 8.5, with HP-β-CD)	Kc complexation constant ([2]; 60 °C, pH 8.5, with HP-β-CD)	solubility at 60 min [2, 4]	solubility at 60 min [2, 5]	Structure (SMILES)	other results
1.4%	341 ± 79 M⁻¹	0.7%	150 ± 21 M⁻¹	0.7%	150 ± 19 M⁻¹	1.1%	226 ± 92 M⁻¹	2.5%	618 ± 36 M⁻¹	0.15%	100 ± 34 M⁻¹	0.9%	250 ± 20 M⁻¹	1.8%	155 ± 4 M⁻¹	7%	728 ± 82 M⁻¹	18 µM (≈ 7.57 µg/mL)	25 µM (≈ 10.5 µg/mL)	COc1ccc(C2C/C(=N\NC(=O)c3ccccc3)c3c(O)cc(O)cc3O2)cc1O (racemic) [HHSB]	FRAP antioxidant activity [1]: 0.000005 ± 0.00005 mmolFe(II)/L; increase of solubility with HP-β-CD ([2]; 60 °C, pH 8.5): five-fold; solubility at 60 min [2, 6]: 25 µM (≈ 10.5 µg/mL); solubility at 60 min [2, 7]: 20 µM (≈ 8.41 µg/mL); solubility at 60 min [2, 8]: 5 µM (≈ 2.1 µg/mL); solubility at 60 min [2, 9]: 5 µM (≈ 2.1 µg/mL); solubility at 60 min [2, 10]: 12 µM (≈ 5.05 µg/mL); solubility at 60 min [2, 11]: 27 µM (≈ 11.4 µg/mL); solubility at 60 min [2, 12]: 18 µM (≈ 7.57 µg/mL); solubility at 60 min [2, 13]: 41 ± 21 µM (≈ 17.2 µg/mL); solubility at 60 min [2, 14]: 45 ± 5 µM (≈ 18.9 µg/mL); solubility at 60 min [2, 15]: 45 ± 5 µM (≈ 18.9 µg/mL); solubility at 60 min [2, 16]: 50 ± 10 µM (≈ 21 µg/mL); solubility at 60 min [2, 17]: 41 ± 23 µM (≈ 17.2 µg/mL); solubility at 60 min [2, 18]: 15 ± 6.1 µM (≈ 6.31 µg/mL); solubility at 60 min [2, 19]: 36 ± 14 µM (≈ 15.1 µg/mL); solubility at 60 min [2, 20]: 115 ± 53 µM (≈ 48.3 µg/mL); solubility at 60 min [2, 21]: 96 ± 42 µM (≈ 40.4 µg/mL); zone of inhibition at 2.5 µM [3]: 0 mm
0.7%	102 ± 43 M⁻¹	0.2%	39 ± 3.6 M⁻¹	1.3%	143 ± 1.6 M⁻¹	1.3%	145 ± 13 M⁻¹	0.04%	25 ± 3.9 M⁻¹	0.04%	28 ± 3.9 M⁻¹	0.3%	62 ± 1.7 M⁻¹	0.3%	61 ± 2.6 M⁻¹	3.7%	132 ± 23 M⁻¹	29 µM (≈ 12.2 µg/mL)	17 µM (≈ 7.16 µg/mL)	COc1ccc(C2C/C(=N\NC(=O)c3ccncc3)c3c(O)cc(O)cc3O2)cc1O (racemic) [HIN]	increase of solubility with HP-β-CD ([2]; 60 °C, pH 3.6): five-fold; increase of solubility with HP-β-CD ([2]; 60 °C, pH 6.5): five-fold; solubility at 60 min ([2]; aqueous buffer solutions, 25 °C, pH 3.6 to 8.5, read-out: solubility, increasing trend with increasing pH): 17 to 90 µM (≈ 7.16 to 37.9 µg/mL); solubility at 60 min [2, 6]: 20 µM (≈ 8.43 µg/mL); solubility at 60 min [2, 7]: 20 µM (≈ 8.43 µg/mL); solubility at 60 min [2, 8]: 1 µM (≈ 0.421 µg/mL); solubility at 60 min [2, 9]: 1 µM (≈ 0.421 µg/mL); solubility at 60 min [2, 10]: 8 µM (≈ 3.37 µg/mL); solubility at 60 min [2, 11]: 8 µM (≈ 3.37 µg/mL); solubility at 60 min [2, 12]: 143 µM (≈ 60.3 µg/mL); solubility at 60 min [2, 13]: 68 ± 40 µM (≈ 28.7 µg/mL); solubility at 60 min [2, 14]: 52 ± 24 µM (≈ 21.9 µg/mL); solubility at 60 min [2, 15]: 90 ± 50 µM (≈ 37.9 µg/mL); solubility at 60 min [2, 16]: 90 ± 50 µM (≈ 37.9 µg/mL); solubility at 60 min [2, 17]: 15 ± 9 µM (≈ 6.32 µg/mL); solubility at 60 min [2, 18]: 14 ± 10 µM (≈ 5.9 µg/mL); solubility at 60 min [2, 19]: 41 ± 20 µM (≈ 17.3 µg/mL); solubility at 60 min [2, 20]: 41 ± 20 µM (≈ 17.3 µg/mL); solubility at 60 min [2, 21]: 283 ± 27 µM (≈ 119 µg/mL); zone of inhibition at 2.5 µM [3]: 0 mm
